Relative viability data for four cell lines are collected here from the supplement of paper PMC10307832.

Common to all, as to assay: relative viability (nuclei count vs DMSO), 5 days (fraction); higher = more cells survive
Compound in assay [1]: COC1=C(C=C(C=C1)C2=CC3=NC=CN3C(=N2)NC4=C(C=CC=N4)C(=O)N)OC [BAY61-3606] + N=C(N)NC(=N)NCCc1ccccc1 [Phenformin] (partner 250 µM)
The gist of the method: (§1)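 Nuclei were stained with Hoechst during a one-step fixation (final 0.05% Triton X-100, 1% formaldehyde, 1 ug/ml Hoechst) carried out 5 days after dosing, then counted on 4× images. The cells, lung cancer lines in 1536-well plates, had been dosed by pin tool the day after seeding with one drug alone or a fixed anchor-drug dose plus five library-drug doses (not always all listed) in √10 steps. Relative viability is the nuclei count in treated wells divided by that in vehicle wells, and each value is the median of duplicate plates.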

Compound in assay [2]: COC1=C(C=C(C=C1)C2=CC3=NC=CN3C(=N2)NC4=C(C=CC=N4)C(=O)N)OC [BAY61-3606] + Cc1nc(NC(=O)N2CCC[C@H]2C(N)=O)sc1-c1ccnc(C(C)(C)C(F)(F)F)c1 [Alpelisib] (partner 2 µM)
The gist of the method:
as §1

Compound in assay [3]: COc1cccc2c1C(=O)c1c(O)c3c(c(O)c1C2=O)C[C@@](O)(C(=O)CO)C[C@@H]3O[C@H]1C[C@H](N)[C@H](O)[C@H](C)O1 [Doxorubicin] + O=C(CCCCCCC(=O)Nc1ccccc1)NO [Vorinostat] (partner 1 µM)
The method in brief:
as §1

Compound in assay [4]: COC1=C(C=C(C=C1)C2=CC3=NC=CN3C(=N2)NC4=C(C=CC=N4)C(=O)N)OC [BAY61-3606] + CC(=O)Nc1cccc(-n2c(=O)n(C3CC3)c(=O)c3c(Nc4ccc(I)cc4F)n(C)c(=O)c(C)c32)c1 [Trametinib] (partner 0.02 µM)
The method in brief: as §1

As for NCI-H1755, the relative viability in assay [1] (first compound 0.02 µM) is 0.666; in assay [1] (first compound 0.06325 µM), 0.6; in assay [1] (first compound 0.2 µM), 0.578; in assay [1] (first compound 0.6325 µM) it was 0.656; in assay [1] (first compound 2 µM), 0.59; in assay [2] (first compound 0.02 µM), 0.946. Further, the relative viability came out at 1.01 in assay [2] (first compound 0.06325 µM); 0.908 in assay [2] (first compound 0.2 µM); 0.903 in assay [2] (first compound 0.6325 µM); 0.77 in assay [2] (first compound 2 µM); 0.78 in assay [3] (first compound 0.001 µM); 0.749 in assay [3] (first compound 0.003162 µM). Further, the relative viability in assay [3] (first compound 0.01 µM) came to 0.716; in assay [3] (first compound 0.03162 µM) it was 0.788; in assay [3] (first compound 0.1 µM), 0.827; in assay [4] (first compound 0.02 µM) it was 0.768; in assay [4] (first compound 0.06325 µM) it was 0.853; in assay [4] (first compound 0.2 µM), 0.792. Also, the values for the relative viability in assay [4] (first compound 0.6325 µM) and in assay [4] (first compound 2 µM) were 0.769 and 0.762, respectively.

As for NCI-H1793, the relative viability in assay [1] (first compound 0.02 µM) is 0.363; in assay [1] (first compound 0.06325 µM), 0.216; in assay [1] (first compound 0.6325 µM) it was 0.41; in assay [1] (first compound 2 µM) it was 0.271; in assay [2] (first compound 0.02 µM), 0.817; in assay [2] (first compound 0.06325 µM) it was 0.782. For the same cell line, the relative viability was 0.64 in assay [2] (first compound 0.2 µM); 0.882 in assay [2] (first compound 0.6325 µM); 0.839 in assay [2] (first compound 2 µM); 0.867 in assay [3] (first compound 0.003162 µM); 0.728 in assay [3] (first compound 0.01 µM); 0.659 in assay [3] (first compound 0.03162 µM). Moreover, the relative viability was found to be 0.731 in assay [3] (first compound 0.1 µM); 0.445 in assay [4] (first compound 0.02 µM); 0.414 in assay [4] (first compound 0.06325 µM); 0.449 in assay [4] (first compound 0.2 µM); 0.437 in assay [4] (first compound 0.6325 µM); 0.478 in assay [4] (first compound 2 µM).

Turning to NCI-H1915, the relative viability in assay [1] (first compound 0.02 µM) was found to be 0.369; in assay [1] (first compound 0.06325 µM), 0.376; in assay [1] (first compound 0.2 µM), 0.328; in assay [1] (first compound 0.6325 µM), 0.366; in assay [1] (first compound 2 µM) it was 0.261; in assay [2] (first compound 0.02 µM) it was 1.07. In addition, the relative viability is 1.08 in assay [2] (first compound 0.06325 µM); 1.06 in assay [2] (first compound 0.2 µM); 1.03 in assay [2] (first compound 0.6325 µM); 0.93 in assay [2] (first compound 2 µM); 0.521 in assay [3] (first compound 0.001 µM); 0.57 in assay [3] (first compound 0.003162 µM). Moreover, the relative viability was 0.532 in assay [3] (first compound 0.01 µM); 0.5 in assay [3] (first compound 0.03162 µM); 0.527 in assay [3] (first compound 0.1 µM); 0.35 in assay [4] (first compound 0.02 µM); 0.29 in assay [4] (first compound 0.06325 µM); 0.325 in assay [4] (first compound 0.2 µM). For the same cell line, the relative viability in assay [4] (first compound 0.6325 µM) stood at 0.315; in assay [4] (first compound 2 µM) it was 0.246.

In the case of NCI-H1944, the relative viability in assay [1] (first compound 0.02 µM) was 0.211; in assay [1] (first compound 0.06325 µM) it was 0.196; in assay [1] (first compound 0.2 µM) it was 0.193; in assay [1] (first compound 0.6325 µM), 0.201; in assay [1] (first compound 2 µM), 0.182; in assay [2] (first compound 0.02 µM) it was 0.911. Besides, the relative viability is 0.867 in assay [2] (first compound 0.06325 µM); 0.842 in assay [2] (first compound 0.2 µM); 0.703 in assay [2] (first compound 0.6325 µM); 0.505 in assay [2] (first compound 2 µM); 0.554 in assay [3] (first compound 0.001 µM); 0.632 in assay [3] (first compound 0.003162 µM). The relative viability amounted to 0.541 in assay [3] (first compound 0.01 µM); 0.416 in assay [3] (first compound 0.03162 µM); 0.497 in assay [3] (first compound 0.1 µM); 0.469 in assay [4] (first compound 0.02 µM); 0.392 in assay [4] (first compound 0.06325 µM); 0.405 in assay [4] (first compound 0.2 µM). Further, the relative viability in assay [4] (first compound 0.6325 µM) is 0.369; in assay [4] (first compound 2 µM), 0.299.
